Experimental findings from patent publication US20250176602A1, “Composition for Proliferation of Bacteroides uniformis in the Intestinal Tract” (Asahi Group Holdings, Ltd., priority 2019, published 2025) are described below.

This experiment deals with Bacteroides uniformis. Put plainly: Proliferation of Bacteroides uniformis in the intestinal tract, quantification PCR of feces (Example 1). It is filed as in vivo, human. The following applies: about 200 mg α-cyclodextrin per day, oral tablets; 8w vs 0w; p<0.05. Here is the method:
As test subjects, 21 healthy males at the ages of 20 to 49 who have exercise habits of conducting exercise with an intensity of 5 METs or more for 30 minutes or more once or twice a week and who can continue the exercise habits during the test period as well were selected. Among the 21 test subjects, 10 test subjects were selected as an α-cyclodextrin (αCD) intake group, and the remaining 11 test subjects were selected as a placebo group. The test subjects themselves were not informed who belonged to which group. Test Supplements (tablets) having compositions described in Table 1 below were used. One tablet of the test supplements was of about 250 mg. […] The intake period for the test supplements was set to 9 weeks, and change in gut flora was evaluated, a questionnaire on fatigue feeling was conducted, and change in travel time was evaluated, before the start of the intake, after 4-week intake, and after 8-week intake. […] DNA was extracted from the collected feces by a conventional method, and the absolute number of Bacteroides uniformis in the intestinal tract was evaluated by conducting quantification PCR (probe method) with a conventional method using a forward primer, a reverse primer, and a probe targeting a sequence specific to the 16Sr DNA sequence region of Bacteroides uniformis with reference to the description of Anaerobe (2011), 17, 64-68, Jia Tong et al.

For the molecule `OC[C@H]1O[C@@H]2O[C@H]3[C@H](O)[C@@H](O)[C@@H](O[C@H]4[C@H](O)[C@@H](O)[C@@H](O[C@H]5[C@H](O)[C@@H](O)[C@@H](O[C@H]6[C@H](O)[C@@H](O)[C@@H](O[C@H]7[C@H](O)[C@@H](O)[C@@H](O[C@H]1[C@H](O)[C@H]2O)O[C@@H]7CO)O[C@@H]6CO)O[C@@H]5CO)O[C@@H]4CO)O[C@@H]3CO` [α-cyclodextrin], the “bacterial cell number of Bacteroides uniformis in the intestinal tract, after 8-week intake as compared with before intake” value is “about 2.5 times”.
